Assay results taken from US20160280688A1, “SUBSTITUTED PHENYLALANINE DERIVATIVES” (BAYER PHARMA AKTIENGESELLSCHAFT, priority 2013, published 2016).
Structures can show the parent of a compound that is named as a salt.

What was measured:
[1] = target: T1, human factor XIa (Homo sapiens, UniProt P03951); assay: Measurement of FXIa inhibition (fluorogenic peptide substrate Boc-Glu(OBzl)-Ala-Arg-AMC); format: biochemical; conditions: factor XIa from Kordia, 15 min preincubation, 30 min at 22° C., fluorescence
T1 construct: purchased Kordia
Method: To determine the factor XIa inhibition of the substances according to the invention, a biochemical test system is used which utilizes the reaction of a peptidic factor XIa substrate to determine the enzymatic activity of human factor XIa. Here, factor XIa cleaves from the peptic factor XIa substrate the C-terminal aminomethylcoumarin (AMC), the fluorescence of which is measured. The determinations are carried out in microtitre plates.
Test substances are dissolved in dimethyl sulphoxide and serially diluted in dimethyl sulphoxide (3000 μM to 0.0078 μM; resulting final concentrations in the test: 50 μM to 0.00013 μM). In each case 1 μl of the diluted substance solutions are placed into the wells of white microtitre plates from Greiner (384 wells). Subsequently, the following are added successively: 20 μl of assay buffer (50 mmol/l Tris buffer pH 7.4; 100 mmol/l sodium chloride; 5 mmol/l calcium chloride; 0.1% bovine serum albumin) and 20 μl of factor XIa from Kordia (0.45 nM in assay buffer). After 15 min of incubation, the enzyme reaction is started by addition of 20 μl of the factor XIa substrate Boc-Glu(OBzl)-Ala-Arg-AMC dissolved in assay buffer (10 μM in assay buffer) from Bachem, the mixture is incubated at room temperature (22° C.) for 30 min and fluorescence is then measured (excitation: 360 nm, emission: 460 nm). The measured emissions of the test batches with test substance are compared to those of control batches without test substance (only dimethyl sulphoxide instead of test substance in dimethyl sulphoxide), and IC50 values are calculated from the concentration/activity relationships.

[2] = test system: human and animal plasma; assay: Determination of the anticoagulatory activity: activated partial thromboplastin time (aPTT) in plasma; format: biochemical; conditions: in vitro in plasma, C.K. Prest kit, 3 min at 37° C.
Method: The anticoagulatory activity of the test substances is determined in vitro in human and animal plasma (for example mouse, rat, rabbit, pig and dog plasma). To this end, blood is drawn off in a mixing ratio of sodium citrate/blood of 1:9 using a 0.11 molar sodium citrate solution as receiver. Immediately after the blood has been drawn off, it is mixed thoroughly and centrifuged at about 4000 g for 15 minutes. The supernatant is pipetted off.
The activated partial thromboplastin time (aPTT) is determined in the presence of varying concentrations of test substance or the corresponding solvent using a commercial test kit (C.K. Prest from Diagnostica Stago). The test compounds are incubated with the plasma and the PTT reagent (cephalin, kaolin) at 37° C. for 3 minutes. Coagulation is then started by addition of a 25 mM aqueous calcium chloride solution, and the time when coagulation occurs is determined. The concentration of test substance which brings about a 1.5-fold extension of the aPTT is determined Activity data from this test are listed in Table B below: […]

T1 sequence (P03951 388-625 limits assumed): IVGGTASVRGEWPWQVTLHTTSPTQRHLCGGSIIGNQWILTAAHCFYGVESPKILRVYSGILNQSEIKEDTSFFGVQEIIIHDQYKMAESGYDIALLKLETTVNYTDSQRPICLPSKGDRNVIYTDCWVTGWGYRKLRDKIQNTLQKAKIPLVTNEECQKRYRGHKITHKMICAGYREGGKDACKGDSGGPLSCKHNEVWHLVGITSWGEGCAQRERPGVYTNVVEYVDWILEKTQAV
T1 sequence (P03951 19-387 partner limits assumed): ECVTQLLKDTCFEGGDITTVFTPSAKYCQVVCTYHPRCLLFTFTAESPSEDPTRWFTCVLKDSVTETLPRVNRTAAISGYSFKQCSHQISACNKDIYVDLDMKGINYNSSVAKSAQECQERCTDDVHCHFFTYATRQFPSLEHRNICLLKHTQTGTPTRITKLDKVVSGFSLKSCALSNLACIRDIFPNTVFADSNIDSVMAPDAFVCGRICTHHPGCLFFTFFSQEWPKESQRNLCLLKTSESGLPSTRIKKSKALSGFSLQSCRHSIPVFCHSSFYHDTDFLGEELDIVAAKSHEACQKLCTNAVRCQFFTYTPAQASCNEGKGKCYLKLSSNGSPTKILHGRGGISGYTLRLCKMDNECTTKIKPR

IC50 [1]	SMILES	aPTT (concentration of test substance which brings about a 1.5-fold extension of the aPTT) [2]
9 nM	NC[C@H]1CC[C@H](C(=O)N[C@@H](Cc2ccc(-c3cccc4[nH]ncc34)cc2)C(=O)Nc2ccc(-c3nn[nH]n3)cc2)CC1 [Example 6, N-alpha-{[trans-4-(Aminomethyl)cyclohexyl]carbonyl}-4-(1H-indazol-4-yl)-N-[4-(2H-tetrazol-5-yl)phenyl]-L-phenylalaninamide hydrochloride]	0.41 µmol/L
3.2 nM	Cn1cc(-c2ccc(C[C@H](NC(=O)[C@H]3CC[C@H](CN)CC3)C(=O)Nc3ccc(-c4nn[nH]n4)cc3)cc2)c(=O)n(C)c1=O [Example 11, N-alpha-{[trans-4-(Aminomethyl)cyclohexyl]carbonyl}-4-(1,3-dimethyl-2,4-dioxo-1,2,3,4-tetrahydropyrimidin-5-yl)-N-[4-(2H-tetrazol-5-yl)phenyl]-L-phenylalaninamide hydrochloride]	
1.9 nM	NC[C@H]1CC[C@H](C(=O)N[C@@H](Cc2ccc(-c3cccc4[nH]nc(N)c34)cc2)C(=O)Nc2ccc(-c3nn[nH]n3)cc2)CC1 [Example 10, 4-(3-Amino-1H-indazol-4-yl)-N-alpha-{[trans-4-(aminomethyl)cyclohexyl]carbonyl}-N-[4-(2H-tetrazol-5-yl)phenyl]-L-phenylalaninamide hydrochloride]	
3.9 nM	NC[C@H]1CC[C@H](C(=O)N[C@@H](Cc2ccc(-c3ccc4c(c3)CNC4=O)cc2)C(=O)Nc2ccc(-c3nc(C(F)(F)C(F)(F)C(=O)O)n[nH]3)cc2)CC1 [Example 29, 3-[5-(4-{[N-{[trans-4-(Aminomethyl)cyclohexyl]carbonyl}-4-(1-oxo-2,3-dihydro-1H-isoindol-5-yl)-L-phenylalanyl}amino}phenyl)-1H-1,2,4-triazol-3-yl]-2,2,3,3-tetrafluoropropanoic acid hydrochloride]	0.28 µmol/L
37 nM	Cc1nc2c(cc1-c1ccc(C[C@H](NC(=O)[C@H]3CC[C@H](CN)CC3)C(=O)Nc3ccc4[nH]c(=O)[nH]c4c3)cc1)NCCN2 [Example 28, N-alpha-{[trans-4-(Aminomethyl)cyclohexyl]carbonyl}-4-(6-methyl-1,2,3,4-tetrahydropyrido[2,3-b]pyrazin-7-yl)-N-(2-oxo-2,3-dihydro-1H-benzimidazol-5-yl)-L-phenylalaninamide hydrochloride]	1.42 µmol/L
0.5 nM	NC[C@H]1CC[C@H](C(=O)N[C@@H](Cc2ccc(-c3cn(Cc4ccccc4)c(=O)[nH]c3=O)cc2)C(=O)Nc2ccc(-c3nn[nH]n3)cc2)CC1 [Example 17, N-alpha-{[trans-4-(Aminomethyl)cyclohexyl]carbonyl}-4-(1-benzyl-2,4-dioxo-1,2,3,4-tetrahydropyrimidin-5-yl)-N-[4-(2H-tetrazol-5-yl)phenyl]-L-phenylalaninamide hydrochloride]	
3.8 nM	Cn1cnc2ccc(-c3ccc(C[C@H](NC(=O)[C@H]4CC[C@H](CN)CC4)C(=O)Nc4ccc(-c5nn[nH]n5)cc4)cc3)cc21 [Example 15, N-alpha-{[trans-4-(Aminomethyl)cyclohexyl]carbonyl}-4-(1-methyl-1H-benzimidazol-6-yl)-N-[4-(2H-tetrazol-5-yl)phenyl]-L-phenylalaninamide hydrochloride]	
3.2 nM	Cn1cnc2cc(-c3ccc(C[C@H](NC(=O)[C@H]4CC[C@H](CN)CC4)C(=O)Nc4ccc(-c5nn[nH]n5)cc4)cc3)ccc21 [Example 16, N-alpha-{[trans-4-(Aminomethyl)cyclohexyl]carbonyl}-4-(1-methyl-1H-benzimidazol-5-yl)-N-[4-(2H-tetrazol-5-yl)phenyl]-L-phenylalaninamide hydrochloride]	
6.8 nM	NC[C@H]1CC[C@H](C(=O)N[C@@H](Cc2ccc(-c3c[nH]c(=O)[nH]c3=O)cc2)C(=O)Nc2ccc(-c3nn[nH]n3)cc2)CC1 [Example 14, N-alpha-{[trans-4-(Aminomethyl)cyclohexyl]carbonyl}-4-(2,4-dioxo-1,2,3,4-tetrahydropyrimidin-5-yl)-N-[4-(2H-tetrazol-5-yl)phenyl]-L-phenylalaninamide hydrochloride]	
1.4 nM	NCC1CCC(C(=O)N[C@@H](Cc2ccc(-c3cncc4ccccc34)cc2)C(=O)Nc2ccc(-c3nn[nH]n3)cc2)CC1 (stereo partly drawn) [Example 3, N-alpha-{[trans-4-(Aminomethyl)cyclohexyl]carbonyl}-4-isoquinolin-4-yl-N-[4-(2H-tetrazol-5-yl)phenyl]-L-phenylalaninamide hydrochloride]	0.14 µmol/L
2.5 nM	Cc1ccc2[nH]ncc2c1-c1ccc(C[C@H](NC(=O)[C@H]2CC[C@H](CN)CC2)C(=O)Nc2ccc(-c3nn[nH]n3)cc2)cc1 [Example 18, N-alpha-{[trans-4-(Aminomethyl)cyclohexyl]carbonyl}-4-(5-methyl-1H-indazol-4-yl)-N-[4-(2H-tetrazol-5-yl)phenyl]-L-phenylalaninamide hydrochloride]	
5.1 nM	Cn1cc(-c2ccc(C[C@H](NC(=O)C3CCC(CN)CC3)C(=O)Nc3ccc(-c4nn[nH]n4)cc3)cc2)c(=O)[nH]c1=O (stereo partly drawn) [Example 5, N-alpha-{[trans-4-(Aminomethyl)cyclohexyl]carbonyl}-4-(1-methyl-2,4-dioxo-1,2,3,4-tetrahydropyrimidin-5-yl)-N-[4-(2H-tetrazol-5-yl)phenyl]-L-phenylalaninamide hydrochloride]	0.06 µmol/L
5.6 nM	Cn1c(=O)[nH]c2ccc(-c3ccc(C[C@H](NC(=O)C4CCC(CN)CC4)C(=O)Nc4ccc(-c5nn[nH]n5)cc4)cc3)cc21 (stereo partly drawn) [Example 4, N-alpha-{[trans-4-(Aminomethyl)cyclohexyl]carbonyl}-4-(3-methyl-2-oxo-2,3-dihydro-1H-benzimidazol-5-yl)-N-[4-(2H-tetrazol-5-yl)phenyl]-L-phenylalaninamide hydrochloride]	0.24 µmol/L
2.6 nM	NCC1CCC(C(=O)N[C@@H](Cc2ccc(-c3cnc4[nH]ccc4c3)cc2)C(=O)Nc2ccc(-c3nn[nH]n3)cc2)CC1 (stereo partly drawn) [Example 2, N-alpha-{[trans-4-(Aminomethyl)cyclohexyl]carbonyl}-4-(1H-pyrrolo[2,3-b]pyridin-5-yl)-N-[4-(2H-tetrazol-5-yl)phenyl]-L-phenylalaninamide hydrochloride]	
4.6 nM	Cc1nc2cc(-c3ccc(C[C@H](NC(=O)[C@H]4CC[C@H](CN)CC4)C(=O)Nc4ccc(-c5nn[nH]n5)cc4)cc3)ccc2[nH]1 [Example 7, N-alpha-{[trans-4-(Aminomethyl)cyclohexyl]carbonyl}-4-(2-methyl-1H-benzimidazol-5-yl)-N-[4-(2H-tetrazol-5-yl)phenyl]-L-phenylalaninamide hydrochloride]	
6.6 nM	NCCn1cnc2cc(-c3ccc(C[C@H](NC(=O)C4CCC(CN)CC4)C(=O)Nc4ccc(-c5nn[nH]n5)cc4)cc3)ccc21 (stereo partly drawn) [Example 13, 4-[1-(2-Aminoethyl)-1H-benzimidazol-5-yl]-N-alpha-{[trans-4-(aminomethyl)cyclohexyl]-carbonyl]-N-[4-(2H-tetrazol-5-yl)phenyl]-L-phenylalaninamide hydrochloride]	0.18 µmol/L
